US11752219B2, “Substrate delivery of embedded liposomes” (NUtech Ventures, priority 2015, dated 2023)
≈ marks a conversion by molar mass, not a printed value.

What was measured:
Cort Astro = test: DOX potency assay (MTT); type: cell-based, rat; details: DOX concentration, 24-hour incubation
Protocol: (§1) Encapsulation of DOX into HALNPs Doxorubicin (DOX) was encapsulated inside the aqueous core of the HALNPs as described above and in Hayward et al, Sci. Rep. 2015, 5:14683. Briefly, a vial of lyophilized HALNPs (0.5 mg lipid) was brought to room temperature, and rehydrated with 1/10th its original pre-lyophilized volume of 0.05×PBS containing 250 μg DOX. Following a thirty minute incubation time to allow for lipid membrane re-assembly, the vial was brought back to its full pre-lyophilized volume with 1×PBS and ultracentrifuged to remove non-encapsulated DOX (140,000 g, 4° C., and 1.25 hr.). The auto-fluorescent property of DOX was then used to determine the entrapment payload. […]
(§2) To determine the effect of free DOX and HALNPDOX on the cell viability of Cort Astro, MG and A172 cells, an MTT assay was utilized as described herein to calculate the lethal concentration to kill 50% of the cells (see also, e.g., Hayward et al, Sci. Rep. 2015, 5:14683; Wilson et al, Nanoscale, 2015, 7:18477-18488; Natarajan et al, PLOS One, 2015, 10:e0134541). […] The cells were then lysed with acidified IPA and the absorbance of the produced formazan crystals was measured using a Beckman Coulter AD340 plate reader (Indianapolis, Ind., USA). Percent viability was determined by normalization of the 570/620 absorbance ratio to the control untreated cells and positive control dead cells (ethanol treated).

MG = test: DOX potency assay (MTT); type: cell-based, mouse; details: DOX concentration, 24-hour incubation
Protocol: as §1, §2

[1] = system: 21MT-1 metastatic breast cancer cells; test: Doxorubicin potency assay (MTT); type: cell-based, human; details: DOX concentration, 24 hours
Protocol: The DOX concentration lethal to 50% of the 21MT-1 cells (LC50) was determined utilizing the MTT (3-(4,5-[…])2,5-diphenyl tetrazolium bromide) assay kit from Life Technologies (Carlsbad, Calif., USA). This colorimetric assay assesses cell health as a function of the mitochondrial conversion of MTT salt to Formazan. A two-step procedure was implemented for precise loading of DOX into the HALNPs and then into the HALNP-PEM platform.
First a solution of […] of DOX in 0.05×PBS was used to rehydrate a lyophilized vial of HALNPs and excess (un-encapsulated) DOX was removed using ultracentrifugation (140,000 g, 1.25 hrs, 4° C.). […] The initial vial of HALNPs (1 mg Total Lipid) concentration was known, thus both the total amount of encapsulated DOX and lipid were fully determined. […]
21MT-1 cells were seeded at a density of 32,000 cells/well in three 48 well plates with different DOX configurations: 1) PEM platform with embedded HALNPDOX [(PLL/SPS)4.5(HALNPDOX)(PLL/SPS)2.5], 2) Bolus form HALNPDOX, and 3) free non-encapsulated DOX. […] Cells were then lysed with lysis buffer (acidified IPA) and the absorbance was measured at 570 and 620 nm using a Beckman Coulter AD340 plate reader (Indianapolis, Ind., USA). Percent viability was determined by normalization of the 570/620 absorbance ratio to the control untreated cells and positive control dead cells.

A172 = test: DOX potency assay (MTT); type: cell-based; details: DOX concentration, 24-hour incubation
Protocol: as §1, §2

COc1cccc2c1C(=O)c1c(O)c3c(c(O)c1C2=O)C[C@@](O)(C(=O)CO)C[C@@H]3O[C@H]1C[C@H](N)[C@H](O)[C@H](C)O1 [Free DOX, doxorubicin]
LC50 values (Cort Astro): 0.322 ± 0.053 µg/mL (≈ 0.592 µM) | LC50 values (MG): 0.267 ± 0.050 µg/mL (≈ 0.491 µM) | LC50 [1]: 0.191 ± 0.0301 µg/mL (≈ 0.351 µM) | LC50 values (A172): 0.193 ± 0.030 µg/mL (≈ 0.355 µM)
